Measured values taken from the NIST ThermoML archive (doi:10.1016/j.jct.2015.06.004).

Key:
[1] = excess molar enthalpy (molar enthalpy of mixing); xn = mol fraction of the nth substance listed; settings: 298.15 K, 100 kPa, Liquid, Power-compensation calorimetry
[2] = 298.15 K; 101.33 kPa; Liquid; Vibrating tube method

CCCC[N+]1(C)CCCC1.N#C[B-](C#N)(C#N)C#N [1-butyl-1-methylpyrrolidinium tetracyanoborate] + Cc1ccccc1
[1]
Settings | excess molar enthalpy [kcal/mol]
x1 = 0.0179 | -0.0242
x1 = 0.0359 | -0.0474
x1 = 0.0539 | -0.0702
x1 = 0.0719 | -0.093
x1 = 0.0898 | -0.116
x1 = 0.1079 | -0.138
x1 = 0.1259 | -0.161
x1 = 0.1439 | -0.184
x1 = 0.1619 | -0.206
x1 = 0.1799 | -0.228
x1 = 0.1979 | -0.249
x1 = 0.2159 | -0.271
x1 = 0.2339 | -0.291
x1 = 0.2519 | -0.304
x1 = 0.2698 | -0.313
x1 = 0.2878 | -0.319
x1 = 0.2933 | -0.315
x1 = 0.3059 | -0.322
x1 = 0.3203 | -0.319
x1 = 0.3239 | -0.323
x1 = 0.3369 | -0.321
x1 = 0.3603 | -0.312
x1 = 0.4004 | -0.301
x1 = 0.4405 | -0.285
x1 = 0.4805 | -0.267
x1 = 0.5206 | -0.247
x1 = 0.5606 | -0.226
x1 = 0.6006 | -0.206
x1 = 0.6407 | -0.184
x1 = 0.6807 | -0.163
x1 = 0.7207 | -0.141
x1 = 0.7606 | -0.12
x1 = 0.8006 | -0.0991
x1 = 0.8405 | -0.0784
x1 = 0.8803 | -0.058
x1 = 0.9202 | -0.0379
x1 = 0.9601 | -0.0183

CCCC[N+]1(C)CCCC1.N#C[B-](C#N)(C#N)C#N [1-butyl-1-methylpyrrolidinium tetracyanoborate] + c1ccccc1
[1]
Settings | excess molar enthalpy [kcal/mol]
x1 = 0.0138 | -0.0203
x1 = 0.0277 | -0.0402
x1 = 0.0415 | -0.06
x1 = 0.0555 | -0.0799
x1 = 0.0694 | -0.0998
x1 = 0.0834 | -0.12
x1 = 0.0975 | -0.14
x1 = 0.1115 | -0.16
x1 = 0.1256 | -0.18
x1 = 0.1398 | -0.2
x1 = 0.1539 | -0.219
x1 = 0.1681 | -0.238
x1 = 0.1824 | -0.253
x1 = 0.1966 | -0.266
x1 = 0.2109 | -0.277
x1 = 0.2253 | -0.285
x1 = 0.2396 | -0.29
x1 = 0.2534 | -0.29
x1 = 0.254 | -0.294
x1 = 0.2685 | -0.296
x1 = 0.2767 | -0.296
x1 = 0.28 | -0.296
x1 = 0.3165 | -0.294
x1 = 0.3564 | -0.284
x1 = 0.3963 | -0.269
x1 = 0.4362 | -0.252
x1 = 0.4762 | -0.232
x1 = 0.5162 | -0.212
x1 = 0.5564 | -0.192
x1 = 0.5965 | -0.172
x1 = 0.6367 | -0.153
x1 = 0.6769 | -0.134
x1 = 0.7172 | -0.116
x1 = 0.7575 | -0.0981
x1 = 0.7979 | -0.0803
x1 = 0.8384 | -0.0632
x1 = 0.8788 | -0.0466
x1 = 0.9191 | -0.0305
x1 = 0.9596 | -0.0149

CCCC[N+]1(C)CCCC1.N#C[B-](C#N)(C#N)C#N [1-butyl-1-methylpyrrolidinium tetracyanoborate] + c1ccsc1
[1]
Settings | excess molar enthalpy [kcal/mol]
x1 = 0.0147 | -0.0239
x1 = 0.0293 | -0.0467
x1 = 0.0439 | -0.0692
x1 = 0.0586 | -0.0916
x1 = 0.0732 | -0.114
x1 = 0.0879 | -0.136
x1 = 0.1026 | -0.158
x1 = 0.1173 | -0.18
x1 = 0.1321 | -0.202
x1 = 0.1468 | -0.224
x1 = 0.1616 | -0.245
x1 = 0.1763 | -0.263
x1 = 0.1911 | -0.279
x1 = 0.2059 | -0.292
x1 = 0.2207 | -0.302
x1 = 0.2316 | -0.303
x1 = 0.2355 | -0.31
x1 = 0.2503 | -0.316
x1 = 0.2515 | -0.311
x1 = 0.2642 | -0.319
x1 = 0.2763 | -0.315
x1 = 0.316 | -0.313
x1 = 0.3559 | -0.303
x1 = 0.3957 | -0.289
x1 = 0.4356 | -0.272
x1 = 0.4756 | -0.253
x1 = 0.5155 | -0.233
x1 = 0.5556 | -0.213
x1 = 0.5958 | -0.192
x1 = 0.636 | -0.172
x1 = 0.6763 | -0.151
x1 = 0.7165 | -0.131
x1 = 0.757 | -0.111
x1 = 0.7974 | -0.0918
x1 = 0.8378 | -0.0726
x1 = 0.8782 | -0.0537
x1 = 0.9188 | -0.0352
x1 = 0.9595 | -0.017

c1ccccc1 [benzene]
Settings | mass density [kg/m3]
[2] | 873.57

CCCCO [butan-1-ol]
Settings | mass density [kg/m3]
[2] | 805.79

CCO [ethanol]
Settings | mass density [kg/m3]
[2] | 785.39

CO [methanol]
Settings | mass density [kg/m3]
[2] | 786.6

CCCO [propan-1-ol]
Settings | mass density [kg/m3]
[2] | 799.56

c1ccsc1 [thiophene]
Settings | mass density [kg/m3]
[2] | 1058.46

Cc1ccccc1 [toluene]
Settings | mass density [kg/m3]
[2] | 862.22
